Among the data in US20190367516A1 (Bayer Pharma Aktiengesellschaft, priority 2015, published 2019) are EC50, Emax and Efficiency values, retold here.

Like-named read-outs stand apart in the source and are kept apart here.

The test addresses T1, human M2 receptor (Homo sapiens, UniProt P08172).
T1 sequence (P08172 1-466): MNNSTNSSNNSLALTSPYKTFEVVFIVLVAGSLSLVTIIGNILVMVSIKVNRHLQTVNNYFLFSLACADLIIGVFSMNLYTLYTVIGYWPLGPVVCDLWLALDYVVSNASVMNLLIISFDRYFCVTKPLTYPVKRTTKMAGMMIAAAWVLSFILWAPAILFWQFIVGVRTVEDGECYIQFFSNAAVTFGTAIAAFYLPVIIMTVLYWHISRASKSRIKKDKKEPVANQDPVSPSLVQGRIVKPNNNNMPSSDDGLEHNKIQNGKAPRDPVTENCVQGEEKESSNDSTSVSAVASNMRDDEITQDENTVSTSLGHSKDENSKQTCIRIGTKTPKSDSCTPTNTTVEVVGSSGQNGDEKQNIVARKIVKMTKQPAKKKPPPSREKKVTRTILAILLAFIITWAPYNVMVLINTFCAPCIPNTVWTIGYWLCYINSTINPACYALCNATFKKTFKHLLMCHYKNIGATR

Setting [1] is: Receptor activity EC50, M2-GIRK1/4 activation test, acetylcholine at EC20, allosteric potency, in some cases mean values from two or more determinations.
Where [2] appears, read: Receptor activity EC50, allosteric potency at EC20 acetylcholine, M2-GIRK1/4 reporter cells, in some cases mean of two or more determinations.
[3] abbreviates: read-out: Efficiency, boosting of the acetylcholine effect at EC20 acetylcholine concentration, M2-GIRK1/4 reporter cells.

Molecule `CC[C@@H](NC(=O)c1cn(-c2ccc(F)cc2F)c2nc(N3CC(OC(=O)NC)CC3=O)ccc2c1=O)C(F)(F)F` (stereo partly drawn) [Example 200, (3S)-1-[8-(2,4-Difluorophenyl)-5-oxo-6-{[(2R)-1,1,1-trifluorobutan-2-yl]carbamoyl}-5,8-dihydro-1,8-naphthyridin-2-yl]-5-oxopyrrolidin-3-yl methyl carbamate] came in with a half-maximal effective concentration (EC50) under setting [1] of 293 nM.

The molecule `CC[C@H](NC(=O)c1cn(-c2c(Cl)cc(F)cc2Cl)c2nc(N3C[C@@H](O)CC3=O)ccc2c1=O)C(F)(F)F` [Example 389, 1-(2,6-Dichloro-4-fluorophenyl)-7-[(4S)-4-hydroxy-2-oxopyrrolidin-1-yl]-4-oxo-N-[(2S)-1,1,1-trifluorobutan-2-yl]-1,4-dihydro-1,8-naphthyridine-3-carboxamide] had a concentration giving a half-maximal response (EC50) under setting [1] of 38 nM. Under “read-out: Efficiency”, the Emax came out at 85.5%.

On to `CC[C@@H](NC(=O)c1cn(-c2ccc(F)cc2F)c2nc(N3CCN(C)C3=O)ccc2c1=O)C(F)(F)F` [Example 321, 1-(2,4-Difluorophenyl)-7-(3-methyl-2-oxoimidazolidin-1-yl)-4-oxo-N-[(2R)-1,1,1-trifluorobutan-2-yl]-1,4-dihydro-1,8-naphthyridine-3-carboxamide], for which the EC50 under setting [1] was 43 nM.

In turn, `NC(=O)[C@@H]1CN(c2ccc3c(=O)c(C(=O)N[C@@H](C4CC4)C(F)(F)F)cn(-c4c(F)cc(F)cc4F)c3n2)C(=O)O1` [Example 668, 7-[(5S)-5-Carbamoyl-2-oxo-1,3-oxazolidin-3-yl]-N-[(1 S)-1-cyclopropyl-2,2,2-trifluoroethyl]-4-oxo-1-(2,4,6-trifluorophenyl)-1,4-dihydro-1,8-naphthyridine-3-carboxamide] came in with an EC50 under setting [2] of 89 nM. Also, the Emax under setting [3] was determined as 100%.

The molecule `CC[C@@H](NC(=O)c1cn(-c2ccccc2C(F)(F)F)c2nc(N3C[C@@H](O)CC3=O)ccc2c1=O)C(F)(F)F` (single isomer, unassigned) [Example 270] yielded an EC50 under setting [1] of 1600 nM.

For `CC[C@@H](NC(=O)c1cn(-c2ccc(F)cc2F)c2nc(N3CCCN(CC)C3=O)ccc2c1=O)C(F)(F)F` [Example 344, 1-(2,4-Difluorophenyl)-7-(3-ethyl-2-oxotetrahydropyrimidin-1(2H)-yl)-4-oxo-N-[(2R)-1,1-trifluorobutan-2-yl]-1,4-dihydro-1,8-naphthyridine-3-carboxamide], under setting [1], the EC50 came to 54 nM.

Take `CC(NC(=O)c1cn(-c2c(F)cc(F)cc2F)c2nc(N3C[C@@H](O)[C@H](O)C3)ccc2c1=O)(C(F)(F)F)C(F)(F)F` [Example 591, 7-[(3R,4R)-3,4-Dihydroxypyrrolidin-1-yl]-N-(1,1,3,3,3-hexafluoro-2-methylpropan-2-yl)-4-oxo-1-(2,4,6-trifluorophenyl)-1,4-dihydro-1,8-naphthyridine-3-carboxamide]: the midpoint of the response under setting [2], the EC50, lay at 16 nM. Moreover, under setting [3], the Emax came to 100%.

For `CC[C@H](NC(=O)c1cn(-c2c(F)cccc2F)c2nc(N3CCNC3=O)ccc2c1=O)C(F)(F)F` [Example 637, 1-(2,6-Difluorophenyl)-4-oxo-7-(2-oxoimidazolidin-1-yl)-N-[(2)-1,1,1-trifluorobutan-2-yl]-1,4-dihydro-1,8-naphthyridine-3-carboxamide], under setting [2], the EC50 is 60 nM. Also, the Emax under setting [3] stood at 93%.

`O=C(NC12CC3CC(CC(C3)C1)C2)c1cn(-c2ccc(F)cc2F)c2nc(N3CCS(=O)(=O)C3)ccc2c1=O` [Example 130, 1-(2,4-Difluorophenyl)-7-(1,1-dioxido-1,3-thiazolidin-3-yl)-4-oxo-N-(tricyclo[3.3.1.1^3,7]dec-1-yl)-1,4-dihydro-1,8-naphthyridine-3-carboxamide] returned an EC50 under setting [1] of 113 nM.

Take `O=C(NC12CC(C1)C2)c1cn(-c2c(F)cc(F)cc2F)c2nc(N3CC(O)C4(CC4)C3)ccc2c1=O` (racemic) [Example 626, N-(Bicyclo[1.1.1]pent-1-yl)-7-[7-hydroxy-5-azaspiro[2.4]hept-5-yl]-4-oxo-1-(2,4,6-trifluorophenyl)-1,4-dihydro-1,8-naphthyridine-3-carboxamide]: a half-maximal effect under setting [2] (EC50) was put at 44 nM. Moreover, the Emax under setting [3] came to 93.5%.

On to `CC[C@@H](NC(=O)c1cn(-c2ccc(F)cc2F)c2nc(N3C(=O)CC(O)C3C)ccc2c1=O)C(F)(F)F` (stereo partly drawn) [Example 640, 1-(2,4-Difluorophenyl)-7-[3-hydroxy-2-methyl-5-oxopyrrolidin-1-yl]-4-oxo-N-[(2R)-1,1,1-trifluorobutan-2-yl]-1,4-dihydro-1,8-naphthyridine-3-carboxamide], for which the half-maximal effective concentration (EC50) under setting [2] was found to be 69 nM. For the same molecule, the Emax under setting [3] turned out to be 91.3%.

For `CC[C@@H](NC(=O)c1cn(-c2ccc(F)cc2F)c2nc(N3CC(F)C3)ccc2c1=O)C(F)(F)F` [Example 32, 1-(2,4-Difluorophenyl)-7-(3-fluoroazetidin-1-yl)-4-oxo-N-[(2R)-1,1,1-trifluorobutan-2-yl]-1,4-dihydro-1,8-naphthyridine-3-carboxamide], under setting [1], a half-maximal effect (EC50) was put at 173 nM.

Turning to `CCC(NC(=O)c1cn(-c2ccc(F)cc2F)c2nc(N3C[C@@H](O)CC3=O)ccc2c1=O)C(F)(F)C(F)(F)F` (single isomer, unassigned) [Example 558], under setting [2], the EC50 came out at 22 nM. The molecule also returned an Efficiency (boosting of the acetylcholine effect at EC20 acetylcholine concentration, M2-GIRK1/4 reporter cells) of 100.0%.

For the molecule `CC[C@@H](NC(=O)c1cn(-c2c(Cl)cccc2Cl)c2nc(N3C[C@@H](O)CC3=O)ccc2c1=O)C(F)(F)F` [Example 645, 1-(2,6-Dichlorophenyl)-7-[(4S)-4-hydroxy-2-oxopyrrolidin-1-yl]-4-oxo-N-[(2R)-1,1,1-trifluorobutan-2-yl]-1,4-dihydro-1,8-naphthyridine-3-carboxamide], under setting [2], a half-maximal response (EC50) required 74 nM. For the same molecule, for the setting “read-out: Efficiency”, the Emax was 83%.

`O=C(NC(C1CC1)C(F)(F)F)c1cn(-c2ccc(F)cc2F)c2nc(N3C[C@@H](O)CC3=O)ccc2c1=O` (mixture of isomers) [Example 283]: the midpoint of the response under setting [1], the EC50, lay at 40 nM.

Regarding `CC[C@@H](NC(=O)c1cn(-c2c(F)cccc2F)c2nc(N3CCC(O)C3=O)ccc2c1=O)C(F)(F)F` (mixture of isomers) [Example 292, 1-(2,6-Difluorophenyl)-7-[3-hydroxy-2-oxopyrrolidin-1-yl]-4-oxo-N-[(2R)-1,1,1-trifluorobutan-2-yl]-1,4-dihydro-1,8-naphthyridine-3-carboxamide], under setting [1], the EC50 was determined as 59 nM.

As to `CC[C@@H](NC(=O)c1cn(-c2ccc(F)cc2F)c2nc(N3CCOC(C(F)F)C3)ccc2c1=O)C(F)(F)F` (mixture of isomers) [Example 263, 7-[2-(Difluoromethyl)morpholin-4-yl]-1-(2,4-difluorophenyl)-4-oxo-N-[(2R)-1,1,1-trifluorobutan-2-yl]-1,4-dihydro-1,8-naphthyridine-3-carboxamide], under setting [1], the EC50 came out at 440 nM.

Molecule `O=C(NC(CC(F)(F)F)C(F)(F)F)c1cn(-c2c(F)cc(F)cc2F)c2nc(N3CCNC3=O)ccc2c1=O` (racemic) [Example 586, N-[1,1,1,4,4,4-Hexafluorobutan-2-yl]-4-oxo-7-(2-oxoimidazolidin-1-yl)-1-(2,4,6-trifluorophenyl)-1,4-dihydro-1,8-naphthyridine-3-carboxamide] displayed an EC50 under setting [2] of 15 nM. For the same molecule, the Emax under setting [3] came to 100%.

`O=C(N[C@@H](C1CC1)C(F)(F)F)c1cn(-c2c(F)cc(F)cc2F)c2nc(N3CCC[C@H]3CO)ccc2c1=O` [Example 660, N-[(1S)-1-Cyclopropyl-2,2,2-trifluoroethyl]-7-[(2S)-2-(hydroxymethyl)pyrrolidin-1-yl]-4-oxo-1-(2,4,6-trifluorophenyl)-1,4-dihydro-1,8-naphthyridine-3-carboxamide] came in with a 50% effective concentration (EC50) under setting [2] of 102 nM. The Emax under setting [3] was 84.5%.

As for `CC(C)(CC(F)(F)F)NC(=O)c1cn(-c2c(F)cc(F)cc2Cl)c2nc(N3C[C@@H](O)[C@H](O)C3)ccc2c1=O` (single isomer, unassigned) [Example 393], the EC50 under setting [1] turned out to be 125 nM.

As to `CC(C)(NC(=O)c1cn(-c2c(F)cc(F)cc2F)c2nc(N3C[C@@H](O)[C@H](O)C3)ccc2c1=O)C(F)(F)F` [Example 403], under setting [2], the EC50 worked out at 32 nM. Further, the Emax under setting [3] was determined as 100%.

Molecule `O=C(NC(C(F)(F)F)C(F)(F)F)c1cn(-c2c(F)cc(F)cc2F)c2nc(N3CCNC3=O)ccc2c1=O` [Example 599, N-(1,1,1,3,3,3-Hexafluoropropan-2-yl)-4-oxo-7-(2-oxoimidazolidin-1-yl)-1-(2,4,6-trifluorophenyl)-1,4-dihydro-1,8-naphthyridine-3-carboxamide] yielded an EC50 under setting [2] of 23 nM. Besides, the Emax under setting [3] stood at 90%.

Molecule `N#CN1CCCN(c2ccc3c(=O)c(C(=O)N[C@@H](C4CC4)C(F)(F)F)cn(-c4c(F)cc(F)cc4F)c3n2)C1=O` [Example 380, 7-(3-Cyano-2-oxotetrahydropyrimidin-1(2H)-yl)-N-[(1S)-1-cyclopropyl-2,2,2-trifluoroethyl]-4-oxo-1-(2,4,6-trifluorophenyl)-1,4-dihydro-1,8-naphthyridine-3-carboxamide] had an EC50 under setting [1] of 46 nM.

Regarding `CC[C@H](NC(=O)c1cn(-c2ccc(F)cc2F)c2nc(N(C)C)ccc2c1=O)C(F)(F)F` [Example 45, 1-(2,4-Difluorophenyl)-7-(dimethylamino)-4-oxo-N-[(2S)-1,1,1-trifluorobutan-2-yl]-1,4-dihydro-1,8-naphthyridine-3-carboxamide], the 50% effective concentration (EC50) under setting [1] amounted to 28 nM.

As usually defined, the EC50 is the concentration giving half of the maximal effect. The low end stands for an effect from little substance, the high end for a need for much substance.
